In paper PMC9181926, “Synthesis and Antiproliferative Activity of Novel Dehydroabietic Acid-Chalcone Hybrids” (Molecules, 2022):

Experiments:
[1] = system: Hs578T cells; test: Antiproliferation assay (cell counting, 48 h) in Hs578T breast cancer cells; assay type: cell-based, human; conditions: for Selectivity Index for Hs578T: FB IC50 relative to Hs578T IC50; for IC50: Hs578T cells, 48 h incubation, cell counting
From the text: (§1) Regarding the different characteristics of the used breast cancer cell lines, we can notice that MDA-MB-231 and Hs578T are triple negative.
(§2) Primary skin normal fibroblasts were kindly provided by Prof. Emer.

[2] = system: MDA-MB-231, MCF-7 and Hs578T breast cancer cell lines
Experimental: (§3) The antiproliferative activity of the synthesized DHA-chalcone hybrids 31–53 was evaluated using three characteristic breast carcinoma cell lines, MDA-MB-231, MCF-7, and Hs578T. For the sake of comparison, 5-FU, a widely used drug in clinical practice, was selected as positive control.
(§4) MCF-7 (ER-positive breast cancer cells, epithelial, low metastatic), MDA-MB-231, and Hs578T (triple negative breast cancer cells, mesenchymal, high metastatic) were obtained from American Type Culture Collection (ATCC) and cultured with DMEM high glucose/10% Fetal Bovine Serum (FBS) (supplied by Biosera). […] Cancer cells were seeded in 24 well plates (30,000 MCF-7 cells/well, 30.000 MDA-MB-231 cells/well, 25,000 Hs578T cells/well) and fibroblasts in 12 well plates (40,000 cells/well) and incubated in proper medium completed with 10% FBS for 48 h. Compounds were diluted in DMSO and working dilutions were prepared ranging from 5 to 200 μΜ for cancer cells and 1 to 100 μM for fibroblasts. All cells were incubated with working dilutions for 48 h. Afterwards, cells were detached by trypsinization, centrifuged at 3000 rpm for 3 min, and counted using a hemocytometer. Antiproliferation values were then calculated relatively to cancer or normal cells treated only with DMSO. […] IC50 values were calculated using GraphPad Prism 5 (Graph Pad Software).

[3] = system: MCF-7 cells; test: Antiproliferation assay (cell counting, 48 h) in MCF-7 breast cancer cells; assay type: cell-based, human; conditions: for Selectivity Index for MCF-7: FB IC50 relative to MCF-7 IC50; for IC50: MCF-7 cells, 48 h incubation, cell counting
From the text: as §1, §2

[4] = system: normal primary fibroblasts (FB); test: cells; assay type: cell-based, human; conditions: normal primary human fibroblasts, 48 h incubation, cell counting
From the text: as §2

[5] = system: MDA-MB-231 cells; test: Antiproliferation assay (cell counting, 48 h) in MDA-MB-231 breast cancer cells; assay type: cell-based, human; conditions: for Selectivity Index for MDA-MB-231: FB IC50 relative to MDA-MB-231 IC50; for IC50: MDA-MB-231 cells, 48 h incubation, cell counting
From the text: as §1, §2

[6] = system: MDA-MB-231, MCF-7 and Hs578T breast cancer cell lines; test: cells; conditions: Homo sapiens, read-out: IC50 against all the cancer cell lines
Experimental: as §3, §4

| Molecule | Selectivity Index for Hs578T [1] | IC50 ([1]; Homo sapiens, Hs-578T) [µM] | times less toxic than 5-FU (selectivity indices) [2] | times more active than 5-FU [2] | Selectivity Index for MCF-7 [3] | IC50 ([3]; Homo sapiens, MCF7) [µM] | IC50 ([4]; Fibroblast) [µM] | Selectivity Index for MDA-MB-231 [5] | IC50 ([5]; Homo sapiens) [µM] | IC50 [6] [µM] | IC50 [1] [µM] | IC50 [3] [µM] | IC50 [4] [µM] | IC50 [5] [µM] |
| --- | --- | --- | --- | --- | --- | --- | --- | --- | --- | --- | --- | --- | --- | --- |
| COC(=O)[C@]1(C)CCC[C@]2(C)c3cc(O)c(C(=O)/C=C/c4cccnc4)cc3CCC12 (stereo partly drawn) [Compound 33, (1R,4aS)-methyl 6-hydroxy-1,4a-dimethyl-7-((E)-3-(pyridin-3-yl)acryloyl)-1,2,3,4,4a, 9,10,10a-octahydrophenanthrene-1-carboxylate] | 3.50 | 2.48 ± 0.13 | 2.2-3 times | 2.4-3.3 times | 3.93 | 2.21 ± 0.4 | 8.68 ± 0.88 | 1.47 | 5.89 ± 0.77 | 2.21 to 5.89 | – | – | – | – |
| COC(=O)[C@]1(C)CCC[C@]2(C)c3cc(O)c(/C=C/C(=O)c4ccccn4)cc3CCC12 (stereo partly drawn) [Compound 49, (1R,4aS)-methyl 6-hydroxy-1,4a-dimethyl-7-((E)-3-oxo-3-(pyridin-2-yl)prop-1-en-1-yl)-1,2,3,4,4a,9,10,10a-octahydrophenanthrene-1-carboxylate] | 1.39 | 17.1 ± 2.13 | – | – | 0.52 | 45.9 ± 1.52 | 23.8 ± 1.07 | 1.06 | 22.4 ± 0.81 | – | – | – | – | – |
| COC(=O)[C@]1(C)CCC[C@]2(C)c3cc(O)c(/C=C/C(=O)c4cnccn4)cc3CCC12 (stereo partly drawn) [Compound 51, (1R,4aS)-methyl 6-hydroxy-1,4a-dimethyl-7-((E)-3-oxo-3-(pyrazin-2-yl)prop-1-en-1-yl)-1,2,3,4,4a,9,10,10a-octahydrophenanthrene-1-carboxylate] | 0.88 | 23.11 ± 0.04 | – | – | – | > 75 | 20.5 ± 2.46 | 1.14 | 18 ± 2.78 | – | – | – | – | – |
| (1R,4aS)-methyl 6-hydroxy-1,4a-dimethyl-7-((E)-3-oxo-3-(pyridin-3-yl)prop-1-en-1-yl)-1,2,3,4,4a,9,10,10a-octahydrophenanthrene-1-carboxylate [Compound 50] | – | – | – | – | – | – | – | – | – | – | > 75 | > 75 | 192 ± 51.4 | > 75 |
| (1R,4aS)-methyl 7-((E)-3-(1H-pyrrol-3-yl)acryloyl)-6-hydroxy-1,4a-dimethyl-1,2,3,4, 4a,9,10,10a-octahydrophenanthrene-1-carboxylate [Compound 43] | – | – | – | – | – | – | – | – | – | – | 16.6 ± 2.83 | 4.29 ± 0.29 | 33 ± 6.1 | 29.2 ± 3.26 |
| (1R,4aS)-methyl 7-((E)-3-(2-chloroquinolin-4-yl)acryloyl)-6-hydroxy-1,4a-dimethyl-1,2,3,4, 4a,9,10,10a-octahydrophenanthrene-1-carboxylate [Compound 41] | – | – | – | – | – | – | – | – | – | – | 10.3 ± 0.25 | 3.99 ± 0.15 | 7.96 ± 0.1 | 7.12 ± 0.2 |
